Assay results as given in patent US20240139280A1, “USE OF HIF-1-ALPHA INHIBITORS IN CANCER IMMUNOTHERAPY” (ONCOC4, INC., priority 2021, published 2024).

Columns and labels:
[1] = test system: PD-L1 expression in 4T1 cells; assay: PD-L1 expression in 4T1 cells by flow cytometry; format: cell-based, murine; conditions: normoxia, echinomycin 0.45 nM, 48 hours
[2] = test system: PD-L1 expression in E0771 cells; format: cell-based, murine
[3] = test system: PD-L1 in 4T1, E0771, MC38 tumors; assay: Intratumoral PD-L1 immunofluorescence in engrafted 4T1, E0771 and MC38 tumors; format: in vivo, mice; conditions: LEM 0.25 mg/kg every other day for 5 doses; two days after final dose
E0771 tumor = E0771 tumor growth in mice (incl. shRNA sublines, cell depletion); format: in vivo
Protocol: FIGS. 3A-D show the therapeutic effects of echinomycin on tumor growth in immunodeficient and immunocompetent mice. FIG. 3A. Experimental design. Three murine tumor lines were tested: 4T1, E0771, or MC38. For each, immunodeficient and immunocompetent mice were inoculated (day 0), and treatment was initiated with control liposomes (vehicle) or echinomycin liposomes (LEM) on day 6, indicated by arrows in FIGS. 3B-3D. The kinetics of tumor growth were compared to deduce the role of adaptive immunity in the therapeutic effects of echinomycin. FIG. 3B. 4T1 cells (1×10^6) were transplanted into mammary fat pad of NSG and BALB/c mice, which received vehicle or echinomycin (0.15 mg/kg) (arrows). Mean tumor volumes±SEM are shown for one of two independent experiments (n=10/group). FIG. 3C. Kinetics of E0771 tumor growth. E0771 cells (0.7×10^6) were transplanted into mammary fat pad of NSG and C57BL/6 mice, which received vehicle or echinomycin (0.25 mg/kg) (arrows). Mean tumor volumes±SEM are shown for one of two independent experiments (n=5/group). FIG. 3D. Kinetics of MC38 tumor growth. MC38 cells (1×10^6) were transplanted subcutaneously into NSG and C57BL/6 mice, which received vehicle or echinomycin (0.15 mg/kg) (blue arrows). Mean tumor volumes±SEM are shown for one of two independent experiments (n=5/group).
FIGS. 4A-D show the effects of pharmacological and/or genetic targeting of HIF-1α on E0771 tumor growth in immunodeficient or immunocompetent mice. FIG. 4A. Experimental design. Three sublines of E0771 were generated by lentiviral transduction: scrambled shRNA (sh^−Scr), or shRNA for the Hif1α (sh^−Hif1α) or Pdl1 (sh^−Pdl1) genes. For each subline, 0.5×10^6 cells were orthotopically transplanted into NSG or C57BL/6 mice (day 0), which received vehicle or echinomycin (0.25 mg/kg) starting day 6. FIG. 4B. Effects of Hif1α or Pdl1 knockdown on E0771 growth among immunodeficient or immunocompetent recipients. FIG. 4C. Effects of vehicle or echinomycin on sh^−Scr, sh^−Hif1α, or sh^−Pdl1 E0771 growth in immunocompetent C57BL/6 recipients. FIG. 4D. Effects of vehicle or echinomycin (arrows) on sh^−Scr, sh^−Hif1α, or sh^−Pdl1 E0771 growth in immunodeficient NSG recipients. Data shown are means+/−SEM (n=5/group) and are representative of 2 experiments.
FIGS. 5A-D show at echinomycin potentiates the therapeutic effect of anti-CTLA-4 antibody. FIG. 5A. Experimental design. In 4T1, E0771, or MC38 syngeneic tumor models, the effects of echinomycin on tumor growth were tested in combination with anti-CTLA-4 therapy (9D9). Tumor growth kinetics in mice receiving vehicle, echinomycin, and anti-CTLA-4 (9D9) monotherapies, or anti-CTLA-4+anti-PD-1 (9D9+RMP1-14) are shown. Starting on day 6 after tumor cell inoculation, mice received vehicle or echinomycin and/or various mAbs. The mean tumor volumes±SEM are shown for each group. FIG. 5B. Effects of 9D9+echinomycin on 4T1 tumor growth. BALB/c mice received vehicle, liposomal echinomycin (LEM, 0.15 mg/kg) (blue arrows), 9D9 (0.2 mg/mouse/injection) (red arrows), or both (n=10/group). Data shown for one of three independent experiments. FIG. 5C. Effects of 9D9+echinomycin on syngeneic E0771 growth. E0771 cells (0.5×10^6) were orthotopically transplanted into the mammary fat pads of C57BL/6 mice. Mice received vehicle or echinomycin (0.25 mg/kg) and/or various mAbs (0.2 mg/mouse/injection) (red arrows). Representative data shown for one of three independent experiments (n=5/group). FIG. 5D. […]

[4] = test system: E0771 tumor microenvironment; assay: Flow cytometry of dissociated E0771 tumors (tumor cells, myeloid cells, TILs); format: in vivo, C57BL/6 mice
intestinal tissues = assay: Ipilimumab-induced GI-irAE in human CTLA4 knockin mice (FITC-dextran, histology, PD-L1)
Protocol: Experimental design for GI-irAE induction by Ipilimumab, with or without additional therapies. 10-day old CTLA4h/h mice received 0.1 mg of Ipilimumab on days 10, 13, 16, and 19 after birth to induce the GI-irAE phenotype, measured by FITC-dextran assay on day 32. On day 33, the mice were sacrificed for histological and immunofluorescent analysis of intestinal tissues, and flow cytometry, etc. […] Aggregate data from 4 experiments are presented. […] Starting on day 10 after birth, the mice began receiving treatment with vehicle (n=33), echinomycin (n=27), Ipilimumab (n=33), Ipilimumab+echinomycin (n=26), Ipilimumab+RMP1-14 (n=27), Ipilimumab+echinomycin+RMP1-14 (n=28), or Ipilimumab+echinomycin+XMG1.2 (n=15). Echinomycin (10 μg/kg), Ipilimumab (0.1 mg/mouse/injection), RMP1-14 (0.2 mg/mouse/injection), and XMG1.2 (0.2 mg/mouse/injection). Vehicle or echinomycin (10 μg/kg) were given once every three days for 8 doses, and mAbs (0.1 mg/mo. for Ipilimumab; 0.2 mg/mo. for RMP1-14 and XMG1.2) once every three days for 4 doses. Data collection was performed as described in (FIG. 8A). […] Serum FITC-dextran intensity shown as mean±SEM for individual mice pooled from 3 independent experiments. […] Statistics were determined by unpaired t tests (two-tailed) for group means. […] Representative H&E images from intestines of Ipilimumab-treated mice additionally treated with echinomycin (panel i), RMP1-14 (panels ii-iv), echinomycin+RMP1-14 (panels v-vi), or echinomycin+XMG1.2 (panels vii-viii). […] Representative immunofluorescence images showing relative expression of PD-L1 in jejunum of mice from different treatment groups.
Therefore, we used intestinal permeability to orally administrated FITC-dextran and histology as the readout for irAE (FIG. 8A).

CSC1SC[C@H]2C(=O)N(C)[C@@H](C(C)C)C(=O)OC[C@@H](NC(=O)c3cnc4ccccc4n3)C(=O)N[C@@H](C)C(=O)N(C)[C@@H]1C(=O)N(C)[C@@H](C(C)C)C(=O)OC[C@@H](NC(=O)c1cnc3ccccc3n1)C(=O)N[C@@H](C)C(=O)N2C (stereo in doubt) [echinomycin, N,N′-(2,4,12,15,17,25-hexamethyl-11,24-bis(1-methylethyl)-27-(methylthio)-3,6,10,13,16,19,23,26-octaoxo-9,22-dioxa-28-thia-2,5,12,15,18,25-hexaazabicyclo(12.12.3)nonacosane-7,20-diyl)bis(2-quinoxalinecarboxamide)]
PD-L1 protein [1]: reduced PD-L1 protein | PD-L1 expression in sh-Hif1α E0771 cells [2]: abrogated the ability for echinomycin to decrease PD-L1 protein | PD-L1 protein ([2]; E0771 cells, normoxia, echinomycin 0.45 nM, 48 hours): reduced PD-L1 protein | PD-L1 expression in sh-Scr E0771 cells ([2]; scrambled shRNA, echinomycin 1.35 nM): inhibitory effect of echinomycin on PD-L1 expression was preserved | intratumoral PD-L1 expression (immunofluorescence) [3]: marked reduction in PD-L1 expression | E0771 tumor growth, combination study (E0771 tumor; C57BL/6, echinomycin 0.25 mg/kg, mAbs 0.2 mg/mouse/injection, vs vehicle): significant inhibition of tumor growth | sh-Scr E0771 tumor growth (E0771 tumor; C57BL/6 compared to NSG recipients, echinomycin 0.25 mg/kg): more effectively inhibited | sh-Pdl1 E0771 tumor growth (E0771 tumor; C57BL/6 or NSG recipients, echinomycin 0.25 mg/kg): did not further suppress | E0771 tumor growth (E0771 tumor; immunocompetent C57BL/6, echinomycin 0.25 mg/kg): therapeutic effect on immune competent | sh-Hif1α E0771 tumor growth (E0771 tumor; regardless of recipient strain (C57BL/6, NSG), echinomycin 0.25 mg/kg): did not inhibit | inhibition of PD-L1 on tumor cells in mice with conditional knockout of Hif1α in T cells ([4]; Hif1α conditional knockout in T lineages): preserved | CD3 TIL infiltration into hypoxic areas of the tumors ([4]; echinomycin-treated mice): increase in CD3 TIL infiltration into hypoxic areas | PD-L1 expression in the intestines (intestinal tissues; Ipilimumab 0.1 mg/mouse/injection, echinomycin 10 μg/kg added to Ipilimumab): enhanced PD-L1 expression | Ipilimumab-induced intestinal leakage (FITC-dextran) (intestinal tissues; agent added to Ipilimumab (anti-PD-1 added to Ipilimumab+echinomycin)): protected against Ipilimumab-induced intestinal leakage | H&E findings in intestines of Ipilimumab-treated mice additionally treated with the agent (intestinal tissues; representative images, FIG. 8F panels): normal pathology
